Laboratory results reported in ChEMBL document CHEMBL3875228, “Rational Design of a Boron-Modified Triphenylethylene (GLL398) as an Oral Selective Estrogen Receptor Downregulator” (ACS Med Chem Lett, 2017).

What was measured:
[1] = Tmax in Sprague-Dawley rat at 10 mg/kg, po administered via gavage measured at 1 to 24 hrs post administration by HPLC-MS/MS analysis; assay type: ADME, organism-based; settings: in vivo
[2] = Half life in Sprague-Dawley rat at 10 mg/kg, po administered via gavage measured at 1 to 24 hrs post administration by HPLC-MS/MS analysis; assay type: ADME, organism-based; settings: in vivo
[3] = Cmax in Sprague-Dawley rat at 10 mg/kg, po administered via gavage measured at 1 to 24 hrs post administration by HPLC-MS/MS analysis; assay type: ADME, organism-based; set-up: dose 10 mg/kg, route oral; settings: in vivo
[4] = Half life in Sprague-Dawley rat assessed as GW7604 at 10 mg/kg, po administered via gavage measured at 1 to 24 hrs post administration by HPLC-MS/MS analysis; assay type: ADME, organism-based; settings: in vivo
[5] = AUC in Sprague-Dawley rat at 10 mg/kg, po administered via gavage measured at 1 to 24 hrs post administration by HPLC-MS/MS analysis; assay type: ADME, organism-based; settings: in vivo
[6] = Cmax in Sprague-Dawley rat assessed as GW7604 at 10 mg/kg, po administered via gavage measured at 1 to 24 hrs post administration by HPLC-MS/MS analysis; assay type: ADME, organism-based; set-up: dose 10 mg/kg, route oral; settings: in vivo
[7] = AUC in Sprague-Dawley rat assessed as GW7604 at 10 mg/kg, po administered via gavage measured at 1 to 24 hrs post administration by HPLC-MS/MS analysis; assay type: ADME, organism-based; settings: in vivo
cells [8] = settings: Homo sapiens, MCF7, 120 h
Description: Cytotoxicity against human MCF7 cells assessed as reduction in cell viability after 5 days by Coulter counting method

cells [9] = settings: Homo sapiens, MCF7, 120 h; remark: listed apart in the source
Description: Cytotoxicity against tamoxifen-resistant human MCF7 cells assessed as reduction in cell viability after 5 days by Coulter counting method

Estrogen receptor [10] = molecular target: T1, Estrogen receptor (Homo sapiens, UniProt P03372); assay: Downregulation of ERalpha in human MCF7 cells after 4 hrs by Western blot analysis; assay type: cell-based
T1 sequence (P03372 whole entry): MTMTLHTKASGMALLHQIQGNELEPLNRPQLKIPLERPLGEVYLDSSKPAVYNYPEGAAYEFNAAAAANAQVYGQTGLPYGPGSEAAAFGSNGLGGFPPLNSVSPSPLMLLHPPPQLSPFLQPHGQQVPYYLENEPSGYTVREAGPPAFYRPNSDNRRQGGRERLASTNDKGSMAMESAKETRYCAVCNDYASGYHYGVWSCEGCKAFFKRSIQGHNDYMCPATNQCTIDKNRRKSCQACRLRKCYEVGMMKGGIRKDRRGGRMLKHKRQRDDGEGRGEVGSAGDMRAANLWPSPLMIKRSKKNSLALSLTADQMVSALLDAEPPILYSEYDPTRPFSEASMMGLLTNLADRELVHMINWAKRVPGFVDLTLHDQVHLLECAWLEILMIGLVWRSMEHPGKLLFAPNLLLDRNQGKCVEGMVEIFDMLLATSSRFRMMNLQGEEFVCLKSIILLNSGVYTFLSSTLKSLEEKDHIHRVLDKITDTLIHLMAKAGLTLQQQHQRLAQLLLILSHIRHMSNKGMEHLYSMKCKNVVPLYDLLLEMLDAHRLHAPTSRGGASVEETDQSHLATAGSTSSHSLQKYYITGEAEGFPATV

Estrogen receptor [11] = molecular target: T1, Estrogen receptor; assay: biochemical
Description: Displacement of fluormone-labeled ES2 from recombinant full length human ERalpha ligand binding domain expressed in insect cells after 2 hrs by TR-FRET assay

SMILES	Tmax [1] [h]	half-life [2] [h]	Cmax [3] [ng/mL]	t1/2 [4] [h]	AUC [5] [ng·h/mL]	Cmax [6] [ng/mL]	AUC [7] [ng·h/mL]	IC50 (cells [8]) [µM]	IC50 (cells [9]) [µM]	IC50 (Estrogen receptor [10]) [µM]	IC50 (Estrogen receptor [11]) [µM]
CC/C(=C(\c1ccccc1)c1ccc(/C=C/C(=O)O)cc1)c1ccc(O)cc1	3	7	270	4.5	3350	560	8670	1.9	1	–	–
CCC(=C(c1ccc(/C=C/C(=O)O)cc1)c1ccc(B(O)O)cc1)c1ccccc1	1	3.9	3510	–	36900	–	–	1.8	1.2	0.21	0.00114
CC/C(=C(\c1ccc(O)cc1)c1ccc(OCCN(C)C)cc1)c1ccccc1 [AFIMOXIFENE]	–	–	–	–	–	–	–	0.0034	20	–	–
